Patent US10968462B2, “Plants having increased tolerance to herbicides” (BASF AGRO B.V., priority 2013, dated 2021)

How the values were obtained:
Type in all cases: biochemical, Amaranthus tuberculatum
[1] = biological target: wild type and amino acid substituted PPO enzyme (PPO2) of SEQ ID NO: 2 (AMARE) (Amaranthus tuberculatus, UniProt Q0NZW9, R128A/L397D, form not given)
[2] = biological target: wild type and amino acid substituted PPO enzyme (PPO2) of SEQ ID NO: 2 (AMARE) (Amaranthus tuberculatus, UniProt Q0NZW9, F204I/T208S, form not given)
[3] = biological target: wild type and amino acid substituted PPO enzyme (PPO2) of SEQ ID NO: 2 (AMARE) (Amaranthus tuberculatus, UniProt Q0NZW9, F204I/F457M, form not given)
[4] = biological target: wild type and amino acid substituted PPO enzyme (PPO2) of SEQ ID NO: 2 (AMARE)
[5] = biological target: wild type and amino acid substituted PPO enzyme (PPO2) of SEQ ID NO: 2 (AMARE) (Amaranthus tuberculatus, UniProt Q0NZW9, R128L, form not given)

Row | SMILES | IC50 [1] [nM] | IC50 [2] [nM] | IC50 [3] [nM] | IC50 [4] [nM] | IC50 [5] [nM]
1 | C#CCN1C(=O)C(F)(F)Oc2cc(F)c(-n3c(=O)n(C)c(=S)n(C)c3=O)cc21 [1,5-dimethyl-6-thioxo-3-(2,2,7-trifluoro-3-oxo-4-(prop-2-yny] [reference compound] | 5.9 | 0.129 | 0.0752 | 246 | –
2 | CC(C)N(C)S(=O)(=O)NC(=O)c1cc(-n2c(=O)cc(C(F)(F)F)n(C)c2=O)c(F)cc1Cl [Saflufenacil, saflufenacil] | – | 0.0589 | 0.0189 | – | 222
